Converted amounts (≈) assume the structure as drawn.
Tests used:
[1] = Antineuroinflammatory activity in rat brain neonatal microglia assessed as inhibition of LPS-induced superoxide anion generation; format: functional, tissue-based
A2058 = test: Cytotoxicity against human A2058 cells; format: functional
DU-145 = test: Cytotoxicity against human DU145 cells; format: functional
[2] = Cytotoxicity against rat brain neonatal microglia by LDH release assay
[3] = tested on: Mycobacterium tuberculosis; test: Antimycobacterial activity against Mycobacterium tuberculosis H37Rv; format: functional
[4] = Antineuroinflammatory activity in rat brain neonatal microglia assessed as inhibition of LPS-induced TXB2 generation; format: functional, tissue-based
[5] = Antineuroinflammatory activity in rat brain neonatal microglia; format: functional, tissue-based

Which results are given for `CC(=O)O[C@@H](CC[C@@H](C)[C@@H]1CCC(C)=C[C@H]1O)[C@](C)(O)CCC=C(C)C`?
IC50 [1]: 1000 nM; Activity (A2058): 67%; Activity (DU-145): 77%; IC50 [2]: > 10000 nM; MIC [3]: 59.4 µg/mL (≈ 162 µM); IC50 [4]: 400 nM

For `CC(=O)Oc1ccccc1C(=O)O` [ASPIRIN], which IC50 ([5]; read-out: IC50) is on record?
The IC50 was 3.2 nM.

For `CC(C(=O)O)c1ccc(-c2ccccc2)c(F)c1` (stereo not drawn) [FLURBIPROFEN], which IC50 ([5]; read-out: IC50(app)) is on record?
Its IC50 is 100 nM.

— ChEMBL document CHEMBL3098121, “Dactyloditerpenol acetate, a new prenylbisabolane-type diterpene from Aplysia dactylomela with significant in vitro anti-neuroinflammatory activity” (Bioorg Med Chem Lett, 2014)
